Experimental data from patent US9616019B2, “Nanosuspension of a poorly soluble drug via microfluidization process” (Celgene Corporation, priority 2009, dated 2017).

Test: Particle size distribution by laser diffraction particle size analyzer
Format: physicochemical
Method: The particle size distribution of the resultant suspensions can be measured using any instrumentation. An example is laser diffraction using a Cilas Particle Size Analyser 1190. The images of the particles can be taken using, for example, the microscope “Olympus”. The resolution rates can be determined, for example, by a pION μDISS Profiler.
An aqueous dispersion of cyclopropyl-N-{2-[(1S)-1-(3-ethoxy-4-methoxyphenyl)-2-(methylsulfonyl)ethyl]-3-oxoisoindoline-4-yl}carboxamide up to 200 mg/ml in 0.5% HPMC E5 were able to be processed through the Microfluidizer processor. […] By processing at 27K psi for 100 passes, the mean particle size by volume was reduced from 8.0 μm to 0.39 μm, while by processing at 15K psi, the mean size was 0.91 μm. The D90 of particle size by number was 0.09 μm.
Nanosuspensions were formed by initially stirring the micronized cyclopropyl-N-{2-[(1S)-1-(3-ethoxy-4-methoxyphenyl)-2-(methylsulfonyl)ethyl]-3-oxoisoindoline-4-yl}carboxamide in aqueous excipient solutions including PVP, CMC, HPMC, PEG, PEO, Transcutol, glycerin, and/or various surfactants for wetting and solubilization, followed by passing through a high-shear microfluidizer processor. The particle size distribution of the resultant suspensions was measured by a laser diffraction particle size analyzer. The images of the particles were taken using a microscope.
Aqueous dispersions of cyclopropyl-N-{2-[(1S)-1-(3-ethoxy-4-methoxyphenyl)-2-(methylsulfonyl)ethyl]-3-oxoisoindoline-4-yl}carboxamide up to 200 mg/ml in polymeric excipients were processed with this approach. The 200 mg/mL nanosuspension was physically stable at room temperature for 2 months, based on the images and particle size analysis. The D90 of particle size by number was 0.09 μm. […] Upon dilution from 200 mg/ml to 25 mg/ml with specific surfactants, the solubility increased 40 fold over 40 minutes.

CCOc1cc([C@@H](CS(C)(=O)=O)N2Cc3cccc(NC(=O)C4CC4)c3C2=O)ccc1OC [cyclopropyl-N-{2-[(1S)-1-(3-ethoxy-4-methoxyphenyl)-2-(methylsulfonyl)ethyl]-3-oxoisoindoline-4-yl}carboxamide]
D90 of particle size by number: 0.09 μm
mean particle size by volume (before microfluidization): 8.0 μm
mean particle size (optimal process pressure and time): 0.05 μm
mean particle size by volume (processing at 15K psi): 0.91 μm
mean particle size (processing at 15K psi (Example 4)): 0.08 μm
mean particle size by volume (processing at 27K psi for 100 passes, 0.5% HPMC E5): 0.39 μm
mean particle size (processing at 27K psi for 130 passes): 0.05 µm
